# Laboratory results published in article PMC6981454, “Promising 2,6,9-Trisubstituted Purine Derivatives for Anticancer Compounds: Synthesis, 3D-QSAR, and Preliminary Biological Assays” (International Journal of Molecular Sciences, 2019).
# Like-named read-outs stand apart in the source and are kept apart here.
# Tests used:
# Format in all cases: cell-based, human
# CFPAC-1 = experiment: MTT cytotoxicity assay, 72 h; conditions: Homo sapiens, CFPAC-1, IC50 ± SD
# Procedure: (§1) In our study, the human cancer cell lines used were CFAPC- 1 (pancreatic adenocarcinoma); NCI-H460 (large cell lung); HL-60 (acute promyelocytic leukaemia); CACO2 (colorectal adenocarcinoma); HCT-116 (colorectal carcinoma); K562 (chronic myeloid leukaemia); MCF-7 (breast adenocarcinoma); and MRC-5 control cells (normal fibroblasts).
# (§2) CFAPC-1, NCI-H460 H1975, HL-60, HCT-116, CACO2, K562, MCF-7, and MCR-5 were grown and maintained in RPMI 1640 and DMEM F12 as appropriate with 10% fetal bovine serum, 100 UI/mL penicillin–streptomycin, and cultured al 37 °C in 5% CO2 humidified atmosphere. Control cultures were treated with dimethyl sulfoxide (1%) alone at the same concentration as in the purine derivatives treatment. Cell viability was determined by trypan blue dye exclusion. Cell numbers were counted in hemocytometer by light microscopy.
# (§3) Cytotoxicity assays were performed by using the MTT reduction method as described in the literature. Briefly, cancer cell lines were plated in a flat-bottom 96-wells plate at 1 × 10^4 cells per well density. Then, the cells were incubated with synthetized compounds at different concentrations (from 0.1 to 100 µM) in 200 µL of 10% fetal bovine serum-RPMI or EMEM culture medium at 37 °C for 72 h. Then, 10 µL of MTT was added at a final concentration of 0.5 mg/mL, incubated at 37 °C for 4 h, and then solubilized with 10% sodium dodecyl sulphate (SDS) in 0.1 mM HCl and incubated overnight at 37 °C. Formazan formation was measured at 570 nm in a multi-well reader (StatFax 4200).
# HCT-116 = experiment: MTT cytotoxicity assay, 72 h; conditions: Homo sapiens, HCT-116, IC50 ± SD
# Procedure: as §1, §2, §3
# HL-60 = experiment: MTT cytotoxicity assay, 72 h; conditions: for IC50: Homo sapiens
# Procedure: as §1, §2, §3
# K562 = experiment: MTT cytotoxicity assay, 72 h
# Procedure: as §1, §2, §3
# MCF-7 = experiment: MTT cytotoxicity assay, 72 h
# Procedure: as §1, §2, §3
# NCI-H460 = experiment: MTT cytotoxicity assay, 72 h
# Procedure: as §1, §2, §3
# CACO2 = experiment: MTT cytotoxicity assay, 72 h; conditions: Homo sapiens, Caco-2, IC50 ± SD
# Procedure: Cytotoxicity assays were performed by using the MTT reduction method as described in the literature [23, 37]. Briefly, cancer cell lines were plated in a flat-bottom 96-wells plate at 1 × 10^4 cells per well density. Then, the cells were incubated with synthetized compounds at different concentrations (from 0.1 to 100 µM) in 200 µL of 10% fetal bovine serum-RPMI or EMEM culture medium at 37 °C for 72 h. Then, 10 µL of MTT was added at a final concentration of 0.5 mg/mL, incubated at 37 °C for 4 h, and then solubilized with 10% sodium dodecyl sulphate (SDS) in 0.1 mM HCl and incubated overnight at 37 °C. Formazan formation was measured at 570 nm in a multi-well reader (StatFax 4200).
# MRC-5 = experiment: MTT cytotoxicity assay, 72 h, normal control cells; conditions: Homo sapiens, MRC5, IC50 ± SD, normal fibroblasts
# Procedure: as §1, §2, §3
# HL-60 cells = experiment: Cell viability by propidium iodide flow cytometry; conditions: HL-60, 50 μM, 24 h, PI staining
# Excerpt: Next, in order to determinate the cell death type induced by the most promising compounds, we performed a flow cytometry analysis of cell viability in cell line HL-60 treated with the most promising compounds (selected according to their IC50 values and SI). The HL-60 cancer cells were chosen due to their sensitivity to prepared compounds. […] As a preliminary apoptosis filter, propidium iodide (PI) staining was used through flow cytometry analysis which discriminated a population of viable cells impermeable to PI (PI negative) from necrotic cells PI-permeable (PI positive) and apoptotic cells (the difference of the previous two). The results are shown in Figure 7, illustrating that all purine derivatives tested induced apoptosis on HL-60 cells. Around 40% of apoptotic cells were detected in a culture treated with compounds 7a and 7i, 30% by 7e, 7g, and 7h and 70% by 7d and 7j. […] (For dot plots, see Supplementary Information Figures S1–S3.)
# Cell viability was analyzed by flow cytometry as previously described. In this assay, after setting the baseline to exclude cell debris, cells impermeable to propidium iodide (PI negative) are considered as viable. Two populations of PI-permeable dead cells are distinguished based on fluorescence intensity, corresponding to either hypodiploid apoptotic cells or necrotic cells with intact DNA. Here, HL60 cells were incubated with concentrations of 50 µM of each compound for 24 h at 37 °C. Cells were harvested and stained with 10 µg/mL of propidium iodide to determine cell viability. Samples containing roughly 1 × 10^4 cells were evaluated by flow cytometry (FACScanto II; Becton Dickinson, Mountain View, CA) and analyzed using FCS Express v6 software. Three independent biological replicates were performed.
# p53 = experiment: p53-dependent transcriptional activity reporter assay (β-galactosidase) in Arn-8 cells; conditions: p53 reporter assays
# Procedure: Table S3. Results of p53 activity of compounds 4a-u and 7a-j.
# Compound fold p53 activity […]
# p53-dependent transcriptional activity
# To measure p53-dependent transcriptional activity, -galactosidase activity was determined in the human melanoma cell line Arn-8, stably transfected with a p53-responsive reporter construct pRGC foslacZ as described before. After 24 h incubation with the inhibitors, the cells were permeabilized with 0.3% Triton X-100 for 15 min, and then 4-methylumbelliferon-ß-D-galactopyranoside was added as a substrate to a final concentration of 80 µM. […]
# fluorescence was measured at 355/460 nm (ex/em) with a Fluoroskan Ascent microplate reader […]
# Figure S6. Dose-response effect of roscovitine on p53 activity in ARN8 cells (control experiment).
# (1 picture or pasted object on this page, not shown here)
compound,measurement,setting,value
"O=[N+]([O-])c1ccc(N2CCN(c3nc(Cl)nc4c3ncn4C3CCCC3)CC2)cc1 [7h, 2-Chloro-9-cyclopentyl-6-(4-(4-nitrophenyl)piperazin-1-yl)-9H-purine]",IC50,CFPAC-1,> 100 µM
same,IC50,HCT-116,30 ± 7.1 µM
same,IC50,"HL-60; HL-60, 72 h, MTT, 72 h, IC50 ± SD, read-out: IC50 HL-60",0.4 ± 0.01 µM
same,IC50,"HL-60; HL-60, -logIC50 in molar concentration, Table S1, read-out: Experimental pIC50 (HL-60) (converted)",0.4 µM
same,Selectivity Index (SI) MRC-5/HL-60,HL-60; IC50 in MRC-5 / IC50 in HL-60,> 250
same,IC50,"K562; Homo sapiens, K562, 72 h, MTT, 72 h, IC50 ± SD",1.02 ± 0.04 µM
same,Selectivity Index (SI) MRC-5/K562,K562; IC50 in MRC-5 / IC50 in K562,> 98
same,Selectivity Index (SI) MRC-5/MCF-7,MCF-7; IC50 in MRC-5 / IC50 in MCF-7,> 64.5
same,IC50,"MCF-7; MTT, 72 h, IC50 ± SD",1.55 ± 0.34 µM
same,IC50,"NCI-H460; Homo sapiens, NCI-H460, 72 h, MTT, 72 h, IC50 ± SD, read-out: IC50 NCI-H460",1.3 µM
same,IC50,"NCI-H460; Homo sapiens, NCI-H460, -logIC50 in molar concentration, Table S2, read-out: Experimental pIC50 (NCI-H460) (converted)",1.31 µM
same,Selectivity Index (SI) MRC-5/NCI-H460,NCI-H460; IC50 in MRC-5 / IC50 in NCI-H460,> 76.3
same,IC50,"NCI-H460; MTT, 72 h, IC50 ± SD, read-out: IC50 NCI-H460",1.31 ± 0.07 µM
same,IC50,CACO2,> 100 µM
same,IC50,MRC-5,> 100 µM
same,apoptotic cells,HL-60 cells,~30%
same,effect on p53 activation,p53,no effect on p53 activation
